Values of other authors, collected in patent publication US6423847B1, “Synthesis and clinical uses of D,α-tocopherol nicotinate compounds” (Chronorx, LLC, priority 1999, dated 2002).
Where two headings read alike, the source gives them in different places.

Tests used:
[1] = laboratory mice
[2] = system: exogenous glucose utilization by the heart; settings: normal volunteers, 18F-fluorodeoxyglucose PET
[3] = system: liver NAD+; poly(ADP-ribose)
[4] = system: glutathione peroxidase (GSHPx); settings: following supplementation with DAT
[5] = system: human aortic endothelial cells; settings: human aortic endothelial cells pre-incubated with vitamin E, oxidative stress; increased from 37%
[6] = system: malonyldialdehyde and superoxide anion levels; settings: 400 mg once a day, orally for 4 weeks

Compound: O=C(O)c1cccnc1 [Nicotinic acid, nicotinic acid]
- increase in Zn+2 absorption ([1]; fasting states): 38.9%
- increase in Zn+2 absorption ([1]; postprandial conditions): 70.9%
- increase in exogenous glucose utilization by the heart [2]: two- to three-fold increase

Compound: NC(=O)c1cccnc1 [nicotinamide]
- liver polyADP-ribose ([3]; above control groups): significantly elevates
- liver NAD+ ([3]; at 1000 mg/kg): elevations

Compound: Cc1c(C)c2c(c(C)c1O)CC[C@@](C)(CCC[C@H](C)CCC[C@H](C)CCCC(C)C)O2 [vitamin E, D,α-tocopherol]
- glutathione peroxidase (GSHPx) activities [4]: increase as much as twofold
- cell viability [5]: 85%
- malonyldialdehyde levels [6]: significantly reduces
- superoxide anion levels [6]: significantly reduces
